From US12310986B2, “Compositions and methods for the treatment of cancer cells by induction of cytotoxic oxidative stress” (Board of Regents, The University of Texas System, priority 2018, dated 2025)
“Also recorded” adds a separate entry of the source.

Legend:
HCT116 cancer cells = assay: Cytotoxicity in colorectal HCT116 cancer cells, 72 hours treatment (cell images); type: cell-based, human; settings: HCT116, 72 hours; VC or D-VC 1 mM, ATO 5 μM; compared to buffer
Description: Colorectal HCT116 cancer cells were treated with the indicated solutions for 72 hours: control (phosphate buffered saline, PBS, was added to the culture medium in 1:1000 dilution), VC 1 mM (Vitamin C was used at 1 mM concentration), D-VC 1 mM (D-Vitamin C was used at 1 mM concentration), ATO 5 μM (Arsenic Trioxide was used at 5 μM concentration) and the combination of VC 1 mM with ATO 5 μM or D-VC 1 mM with ATO 5 μM. The cell images are shown with the labeling indicating cell treatments.
Colorectal HCT116 cancer cells were treated for 72 hours with PBS, a 1 mM Vitamin C (VC) solution, 1 mM D-Vitamin CVC (D-VC also referred as D-ascorbic acid), 5 μM arsenic trioxide (ATO), Vitamin C and ATO (VC/ATO), or D-VC and ATO (D-VC/ATO) (FIG. 1).

HCT116 cells [1] = assay: Apoptosis flow cytometric assay, Annexin V FITC, HCT116 cells; type: cell-based, human; settings: HCT116, 72 hours; VC or D-VC 1 mM, ATO 5 μM
Description: FIG. 2: Apoptotic flow cytometric analysis of HCT116 cancer following drug treatments. HCT116 cells were treated with the drugs as described in the FIG. 1 and following treatments the cells were stained with Annexin-V FITC and sorted.
FIG. 3: Graphical representation of apoptosis by flow cytometry data. Apoptotic flow cytometric data shown in the FIG. 2 is presented as a graph.

HCT116 xenograft tumors = assay: HCT116 (KRAS mutant) xenograft tumors in nude mice; type: in vivo; settings: VC or D-VC 1.5 g/kg, ATO 7 mg/kg; for effect on tumor growth compared to PBS (control) injections: 15 injections; for scarring on tumors (mice with scarring): 5 mice per group; for tumor weight compared to PBS treated tumors: after 15 injections, one way ANOVA
Description: Pictured are the xenograft tumors of each of the 5 mice per treatment condition. Mice were injected intraperitoneally with PBS (control), Vitamin C (1.5 g/kg), D-Vitamin C (1.5 g/kg), ATO 7 mg/kg), ATO (7 mg/kg)+Vitamin C (1.5 g/kg) or ATO (7 mg/kg)+D-Vitamin C (1.5 g/kg). Mice were injected daily for 6 days and after 6th injection mice were rested for one day.
Pictured are the xenograft tumors of each of the 5 mice per treatment condition as described in FIG. 6 after 12 injections (2 weeks of treatment).
To avoid glucose fluctuations in blood, the food was withdrawn from mice 2 hrs prior drug injections and food was given back to mice after 2 hrs of the VC or D-VC injection.
1.5 million human HCT116 (KRAS mutant) cancer cells were injected into nude mice, 5 mice per experimental group. After 10 days, and after when tumors reached at least 0.8 cm in size, mice were injected daily with either PBS, PBS+1.5 g/kg vitamin C, PBS+7 mg/kg ATO. PBS+7 mg/kg ATO+1.5 g/kg vitamin C, PBS+1.5 g/kg D-Vitamin C, or PBS+7 mg/kg ATO+1.5 g/kg D-Vitamin C. The mice were injected daily, 6 times per week, and rested one day per week, for a total of 15 total drug injections. […] Initially, ATO was injected at 3 mg/kg, while vitamin C or D-VC were injected at 1 g/kg. The following day, ATO was used at 7 mg/kg, while vitamin C and D-VC were used at […].
The injection scheme was ATO injection/2 hour gap/vitamin C or D-VC injection. […] Further, it is also known that the effect of vitamin C treatment on KRAS mutant cancer cells is glucose dependent, To avoid glucose fluctuations in the blood and enhance the effect of vitamin C and D-VC, the drug injections were performed following withdrawal of the food from mice 2 hours prior ATO injections, and the food was only provided again 2 hours following the vitamin C or D-VC injections.

HCT116 cells [2] = assay: Reactive oxygen species (ROS) detection by flow cytometry, Mito Sox Red, HCT116 cells; type: cell-based, human; settings: VC or D-VC 1 mM, ATO 5 μM
Description: FIG. 4: Detection of reactive oxygen species (ROS) by flow cytometry. HCT116 cells were treated with the indicated compounds as described in the FIG. 1 and analyzed by flow cytometry to detect the presence of reactive oxygen species by Mito Sox Red reagent. Mito Sox Red is a reagent from Invitrogen™ catalog #LSM360084
FIG. 5: Graphical representation of the presence of reactive oxygen species (ROS) as detected by flow cytometry. The ROS detection data shown in the FIG. 4 is presented as a graph.
It was anticipated that the cause of cytotoxic stress and apoptosis was the accumulation of reactive oxygen species (ROS), so HCT116 cells were treated as above and assayed for the presence of ROS by flow cytometry (FIG. 4). […] Treatment with 5 μM ATO increased the cells showing ROS accumulation to 26% (FIGS. 4 and 5).

[3] = after 12 injections (2 weeks of treatment)

## arsenic trioxide [ATO]
HCT116 cancer cells
  cytotoxicity: mild cytotoxic impact
HCT116 cells [1]
  apoptosis (Annexin V FITC): low increase in apoptosis over the buffer control
HCT116 xenograft tumors
  effect on tumor growth compared to PBS (control) injections: inhibitory effect on tumor growth
  tumor weight compared to PBS treated tumors: lower compared to the PBS treated tumors, however these differences were not statistically significant
HCT116 xenograft tumors; [3]
  scarring on tumors (mice with scarring): 2/5
HCT116 cells [2]
  cells accumulating ROS: 26%

## O=C1O[C@H]([C@@H](O)CO)C(O)=C1O [VC, L-ascorbic acid]
HCT116 cells [1]
  apoptosis (Annexin V FITC): level of apoptosis similar to the buffer control
HCT116 xenograft tumors
  effect on tumor growth compared to PBS (control) injections: inhibitory effect on tumor growth
  tumor weight compared to PBS treated tumors: lower compared to the PBS treated tumors, however these differences were not statistically significant
HCT116 cells [2]
  cells accumulating ROS: about 5%

## O=C1O[C@@H]([C@H](O)CO)C(O)=C1O [D-VC, D-ascorbic acid]
HCT116 cells [1]
  apoptosis (Annexin V FITC): level of apoptosis similar to the buffer control
HCT116 xenograft tumors
  effect on tumor growth compared to PBS (control) injections: inhibitory effect on tumor growth; also recorded: appeared to be more effective alone but its effect was not consistent
  tumor weight compared to PBS treated tumors: lower compared to the PBS treated tumors, however these differences were not statistically significant
HCT116 xenograft tumors; after 9 injections / within the first week of injections, intraperitoneally
  scarring on tumors (mice with scarring): 2/5
HCT116 xenograft tumors; [3]
  scarring on tumors (mice with scarring): 2/5
HCT116 cells [2]
  cells accumulating ROS: about 5%
